TGI data for 14 compounds are collected here from PubChem BioAssay (NCI).

Among the test systems are A498 renal; HT29 colon; K-562 leukemia; LOX IMVI melanoma; NCI-H226 lung; NCI-H460 lung; NCI-H522 lung; SF-539 CNS; SK-MEL-5 melanoma; SNB-19 CNS.
Experiment in all cases: NCI anticancer screen, dose series, 48 h

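Dose response: 5 concentrations. Exposure: 48 h. Format: 96-well plates. Endpoint: linear interpolation; highest concentration if not reached. TGI marks complete inhibition of growth.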

In the case of `C#C[C@]1(O)CC[C@H]2[C@@H]3CCC4=C/C(=N/OC(=O)c5cccc6c(=O)c7ccccc7[nH]c56)CC[C@@H]4[C@H]3CC[C@@]21C`, the TGI in the assay on A498 renal is greater than 100 µM; in the assay with HT29 colon, greater than 100 µM; with K-562 leukemia, 59 µM; in the assay on LOX IMVI melanoma, greater than 100 µM; in the assay with NCI-H226 lung it was greater than 100 µM; in the assay with NCI-H460 lung it was greater than 100 µM. Besides, the TGI with NCI-H522 lung was 84.1 µM; in the assay on SF-539 CNS it was greater than 100 µM; in the assay with SK-MEL-5 melanoma it was 45.8 µM; in the assay on SNB-19 CNS, greater than 100 µM.

Regarding `N#Cc1c(Cl)cc(Cl)n2c1nc1ccccc12`, the TGI stood at 47.3 µM with A498 renal; 23.6 µM in the assay with HT29 colon; 11.5 µM in the assay with K-562 leukemia; 18.7 µM with LOX IMVI melanoma; 33.8 µM in the assay with NCI-H226 lung; 23.7 µM in the assay with NCI-H460 lung. Further, the TGI in the assay with NCI-H522 lung came out at 3.61 µM; with SF-539 CNS, 12 µM; with SK-MEL-5 melanoma, 32.7 µM; with SNB-19 CNS it was 50.7 µM.

For the compound `CSc1ncnc2c1ncn2CCC#N`, the TGI in the assay with A498 renal, in the assay on HT29 colon, in the assay on K-562 leukemia, with LOX IMVI melanoma, in the assay on NCI-H226 lung and in the assay on NCI-H460 lung was greater than 100 µM throughout. Further, the TGI in the assay with NCI-H522 lung, with SF-539 CNS, in the assay with SK-MEL-5 melanoma and with SNB-19 CNS was greater than 100 µM in each case.

Turning to `CCOC(=O)NC(Nc1ccc([N+](=O)[O-])cc1)(C(F)(F)F)C(F)(F)F`, the TGI in the assay with A498 renal, in the assay with HT29 colon, in the assay on K-562 leukemia, in the assay with LOX IMVI melanoma, in the assay with NCI-H226 lung and with NCI-H460 lung was greater than 100 µM throughout. In addition, the TGI in the assay on NCI-H522 lung, with SF-539 CNS, in the assay on SK-MEL-5 melanoma and with SNB-19 CNS was greater than 100 µM in each case.

`CC(C)(C)C(=O)CC1=Nc2ccccc2SC1(O)CC(=O)C(C)(C)C` (stereo not given): the TGI in the assay with A498 renal is greater than 100 µM; with HT29 colon it was 31.5 µM; with K-562 leukemia it was 97.1 µM; in the assay with LOX IMVI melanoma it was 49.4 µM; with NCI-H226 lung, 40.3 µM; in the assay with NCI-H460 lung it was 38.5 µM. In addition, the TGI in the assay on NCI-H522 lung is 34.4 µM; with SF-539 CNS, 61.3 µM; with SK-MEL-5 melanoma it was 62.7 µM; in the assay on SNB-19 CNS, greater than 100 µM.

Take `CSc1sc2ccccc2[s+]1`: the TGI in the assay on A498 renal, in the assay on HT29 colon, in the assay with K-562 leukemia, in the assay with LOX IMVI melanoma, in the assay on NCI-H226 lung and in the assay with NCI-H460 lung was greater than 100 µM throughout. Moreover, the TGI with NCI-H522 lung, in the assay on SF-539 CNS, in the assay with SK-MEL-5 melanoma and in the assay on SNB-19 CNS was greater than 100 µM in each case.

Consider `C=C([C@@]1(O)C[C@H]2[C@H](CCC2(OC)OC)[C@@H]2c3ccccc3O[C@@H]21)[Si](C)(C)C`, for which the TGI in the assay on A498 renal, with HT29 colon, with K-562 leukemia, with LOX IMVI melanoma, in the assay on NCI-H226 lung and with NCI-H460 lung was greater than 100 µM in each case. Besides, the TGI with NCI-H522 lung, in the assay with SF-539 CNS, with SK-MEL-5 melanoma and in the assay on SNB-19 CNS was greater than 100 µM throughout.

Consider `CSc1cnc2ccccc2c1SC1CN(Cc2ccccc2)c2ccccc2C1=O` (stereo not given), for which the TGI in the assay with A498 renal, in the assay with HT29 colon, in the assay on K-562 leukemia, in the assay with LOX IMVI melanoma, in the assay with NCI-H226 lung and in the assay with NCI-H460 lung was greater than 100 µM each time. The TGI with NCI-H522 lung, in the assay on SF-539 CNS, with SK-MEL-5 melanoma and in the assay on SNB-19 CNS was greater than 100 µM in each case.

Turning to `CC1=NNC(=O)C1C(CC(=O)c1c[nH]c2ccccc12)C(=O)O` (stereo not given), the TGI with A498 renal, in the assay on HT29 colon, in the assay on K-562 leukemia, in the assay on LOX IMVI melanoma, in the assay with NCI-H226 lung and in the assay on NCI-H460 lung was greater than 100 µM in each case. Besides, the TGI in the assay with NCI-H522 lung, in the assay with SF-539 CNS, in the assay on SK-MEL-5 melanoma and in the assay with SNB-19 CNS was greater than 100 µM each time.

For `C=C(Cl)C(C)(Cl)CCC(Br)C(C)(C)Cl` (stereo not given), the TGI in the assay with A498 renal is greater than 100 µM; in the assay with HT29 colon, 29.5 µM; with K-562 leukemia it was greater than 100 µM; in the assay on LOX IMVI melanoma it was 28 µM; in the assay with NCI-H226 lung, greater than 100 µM; in the assay with NCI-H460 lung, 71.9 µM. Further, the TGI is 23.5 µM with NCI-H522 lung, 71.7 µM in the assay on SF-539 CNS, 30.8 µM in the assay with SK-MEL-5 melanoma and greater than 100 µM in the assay on SNB-19 CNS.

In the case of `Nc1ccc(C(=O)N2CCC[C@H]2CO)c(N)c1`, the TGI in the assay on A498 renal, in the assay on HT29 colon, in the assay on K-562 leukemia, in the assay with LOX IMVI melanoma, in the assay with NCI-H226 lung and in the assay with NCI-H460 lung was greater than 100 µM in each case. Moreover, the TGI with NCI-H522 lung, with SF-539 CNS, with SK-MEL-5 melanoma and in the assay with SNB-19 CNS was greater than 100 µM each time.

Consider `C[N+]12CCCCC1C(CN1C(=O)Cc3c4ccccc4c(c4ccccc34)CC1=O)CCC2` (stereo not given), for which the TGI in the assay on A498 renal, in the assay on HT29 colon, with K-562 leukemia, with LOX IMVI melanoma, with NCI-H226 lung and in the assay with NCI-H460 lung was greater than 100 µM each time. The TGI with NCI-H522 lung, in the assay on SF-539 CNS, in the assay with SK-MEL-5 melanoma and in the assay on SNB-19 CNS was greater than 100 µM throughout.

Take `CC(=O)[C@@]1(O)CC[C@H]2[C@@H]3C[C@H](C)C4=CC(=O)C=C[C@]4(C)[C@@]3(F)[C@@H](O)C[C@@]21C`: the TGI in the assay on A498 renal, with HT29 colon, in the assay with K-562 leukemia, in the assay on LOX IMVI melanoma, in the assay on NCI-H226 lung and in the assay on NCI-H460 lung was greater than 100 µM throughout. For the same compound, the TGI in the assay with NCI-H522 lung, in the assay on SF-539 CNS, with SK-MEL-5 melanoma and with SNB-19 CNS was greater than 100 µM in each case.

Turning to `CC12CCC(O)CC1CCC1C2CCC2(C)C(C(=O)CC(O)C(F)(F)F)CCC12` (stereo not given), the TGI in the assay with A498 renal was 40.7 µM; in the assay with HT29 colon, 19.6 µM; with K-562 leukemia, 17.4 µM; in the assay with LOX IMVI melanoma, greater than 100 µM; with NCI-H226 lung, greater than 100 µM; in the assay on NCI-H460 lung, greater than 100 µM. In addition, the TGI was greater than 100 µM with NCI-H522 lung, greater than 92.9 µM with SF-539 CNS, greater than 100 µM in the assay on SK-MEL-5 melanoma and 69.6 µM in the assay with SNB-19 CNS.
